In brackets after ≈: the same amount, converted by molar mass.
How the values were obtained:
Anas platyrhynchos = settings: reproductive
Apis mellifera = settings: acute, duration: 48 hours, mortality
Bibionidae = settings: chronic/long-term; duration: 21 days; other
Canidae = settings: chronic; duration: 52 weeks; oral; Dog Other; organ weight
Colinus virginianus = settings: acute, oral, mortality
Cyprinodon variegatus = settings: acute; duration: 96 hours; mortality
Daphnia magna = settings: chronic/long-term; duration: 21 days; mobility
Pimephales promelas = settings: chronic/long-term; duration: 33 days; other
Tagia sp. = settings: acute; duration: 14 days; mortality
Aphidius rhopalosiphi = experiment: LR50; higher = less toxic; settings: acute; duration: 48 hours; mortality
Typhlodromus pyri = experiment: LR50; higher = less toxic; settings: acute; duration: 7 days; mortality

In the case of `CCOC(=O)OC1=C(c2cc(C)ccc2C)C(=O)NC12CCC(OC)CC2` (stereo unspecified) [Spirotetramat], the NOAEL (Anas platyrhynchos) is reported as 4 mg/kg-day, the LD50 (Apis mellifera; dermal) is reported as greater than 100 µg/piece and the LD50 (Apis mellifera; oral, unspecified) is reported as greater than 107 µg/piece. It also gave an NOEC (Bibionidae) of 0.1 mg/L, an NOAEL (Canidae) of 5 mg/kg-day and an LC50 (Colinus virginianus; diet) greater than 475 mg/kg-day. The LD50 (Colinus virginianus) was greater than 2000 mg/kg-day, the LC50 (Cyprinodon variegatus) was 1.96 µg/mL (≈ 5.25 µM) and the NOEC (Daphnia magna) was 2 mg/L. The NOEC (Pimephales promelas) was 0.534 mg/L, the NOAEL (Rattus norvegicus; acute, clinical signs) was 100 mg/kg-day and the LD50 (Rattus norvegicus; acute, oral, mortality) was greater than 2000 mg/kg-day. The NOAEL (Rattus norvegicus; reproduction developmental, body weight) was 70 mg/kg-day, the LC50 (Tagia sp.) was greater than 1000 mg/kg and the LR50 (Aphidius rhopalosiphi) was 115 g/ha. It also gave an LR50 (Typhlodromus pyri) of 0.333 g/ha.
